Measured values as given in patent US9920339B2, “Methods, reagents and cells for biosynthesizing compounds” (INVISTA North America S.á r.l., priority 2014, dated 2018).

Assays:
[1] = test system: Pseudomonas syringae ω-transaminase (SEQ ID NO: 10); assay: ω-transaminase enzyme activity assay, amine substrate plus pyruvate to L-alanine (cell free extract); format: biochemical; settings: reverse direction, 10 mM substrate, 10 mM pyruvate, 100 μM pyridoxyl 5′ phosphate, pH 7.5, 25° C., 4 h, L-alanine by RP-HPLC
Procedure: (§1) A nucleotide sequence encoding an N-terminal His-tag was added to the Chromobacterium violaceum, Pseudomonas aeruginosa, Pseudomonas syringae, Rhodobacter sphaeroide, Escherichia coli and Vibrio fluvialis genes encoding the ω-transaminases of SEQ ID NOs: 8-13, respectively (see FIG. 10) such that N-terminal HIS tagged ω-transaminases could be produced. The modified genes were cloned into a pET21a expression vector under the T7 promoter. Each expression vector was transformed into a BL21[DE3] E. coli host. Each resulting recombinant E. coli strain were cultivated at 37° C. in a 250 mL shake flask culture containing 50 mL LB media and antibiotic selection pressure, with shaking at 230 rpm. Each culture was induced overnight at 16° C. using 1 mM IPTG.
(§2) The pellet from each induced shake flask culture was harvested via centrifugation. Each pellet was resuspended and lysed via sonication. The cell debris was separated from the supernatant via centrifugation and the cell free extract was used immediately in enzyme activity assays.
(§3) Enzyme activity assays in the reverse direction (i.e., 5-aminopentanol to 5-oxopentanol) were performed in a buffer composed of a final concentration of 50 mM HEPES buffer (pH=7.5), 10 mM 5-aminopentanol, 10 mM pyruvate, and 100 μM pyridoxyl 5′ phosphate. Each enzyme activity assay reaction was initiated by adding cell free extract of the ω-transaminase gene product or the empty vector control to the assay buffer containing the 5-aminopentanol and then incubated at 25° C. for 4 h, with shaking at 250 rpm. The formation of L-alanine was quantified via RP-HPLC.
as §1, with “and” for “Rhodobacter sphaeroide,”, “coli” for “coli and Vibrio fluvialis”, “8-10 and 12,” for “8-13,”
as §3, with “cadaverine” for “5-aminopentanol”, “5-aminopentanal)” for “5-oxopentanol)”, “cadaverine,” for “5-aminopentanol,”
(§4) The activity of the N-terminal His-tagged ω-transaminases of SEQ ID NOs: 8, 10-13 (see Example 3, and FIG. 10) for converting N5-acetyl-1,5-diaminopentane to N5-acetyl-5-aminopentanal was assayed using a buffer composed of a final concentration of 50 mM HEPES buffer (pH=7.5), 10 mM N5-acetyl-1,5-diaminopentane, 10 mM pyruvate and 100 μM pyridoxyl 5′ phosphate. Each enzyme activity assay reaction was initiated by adding a cell free extract of the ω-transaminase or the empty vector control to the assay buffer containing the N5-acetyl-1,5-diaminopentane then incubated at 25° C. for 4 h, with shaking at 250 rpm. The formation of L-alanine was quantified via RP-HPLC.
(§5) The activity of the N-terminal His-tagged ω-transaminases of SEQ ID NOs: 8-13 (see Example 3, and FIG. 10) for converting 1-aminopentane to pentanal was assayed using a buffer composed of a final concentration of 50 mM HEPES buffer (pH=7.5), 10 mM 1-aminopentane, 10 mM pyruvate and 100 μM pyridoxyl 5′ phosphate. […]

[2] = molecular target: T1, Escherichia coli ω-transaminase (SEQ ID NO: 12) (Escherichia coli, UniProt P42588); assay: as above; format: biochemical; settings: reverse direction, 10 mM substrate, 10 mM pyruvate, 100 μM pyridoxyl 5′ phosphate, pH 7.5, 25° C., 4 h, L-alanine by RP-HPLC
T1 construct: His-tag (N); made in house; host or cells: E. coli BL21[DE3], pET21a
T1 sequence (P42588 whole entry): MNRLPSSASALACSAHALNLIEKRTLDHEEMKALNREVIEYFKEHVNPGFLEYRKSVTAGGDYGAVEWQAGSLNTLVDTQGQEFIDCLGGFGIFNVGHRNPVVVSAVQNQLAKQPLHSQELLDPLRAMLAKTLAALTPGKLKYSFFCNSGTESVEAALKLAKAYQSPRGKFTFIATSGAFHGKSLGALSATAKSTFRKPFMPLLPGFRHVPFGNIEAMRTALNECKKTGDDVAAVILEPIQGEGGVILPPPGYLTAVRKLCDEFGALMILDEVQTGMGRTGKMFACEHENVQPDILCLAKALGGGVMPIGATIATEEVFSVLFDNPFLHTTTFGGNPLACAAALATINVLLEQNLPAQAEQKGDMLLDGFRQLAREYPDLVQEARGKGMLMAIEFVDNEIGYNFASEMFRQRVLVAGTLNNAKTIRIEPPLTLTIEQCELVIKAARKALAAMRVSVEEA
Procedure: as §1, §2, §3
as §1, with “and” for “Rhodobacter sphaeroide,”, “coli” for “coli and Vibrio fluvialis”, “8-10 and 12,” for “8-13,”
as §3, with “cadaverine” for “5-aminopentanol”, “5-aminopentanal)” for “5-oxopentanol)”, “cadaverine,” for “5-aminopentanol,”
as §4, §5

[3] = test system: diamine transaminase from E. coli strain B; settings: Kim, 1964; cited from earlier work
[4] = molecular target: gene product of ygjG (Escherichia coli, UniProt P42588); settings: Samsonova et al., 2003; cited from earlier work
Sequence of gene product of ygjG (P42588 whole entry): as above

[5] = test system: Chromobacterium violaceum ω-transaminase (SEQ ID NO: 8); assay: ω-transaminase enzyme activity assay, amine substrate plus pyruvate to L-alanine (cell free extract); format: biochemical; settings: reverse direction, 10 mM substrate, 10 mM pyruvate, 100 μM pyridoxyl 5′ phosphate, pH 7.5, 25° C., 4 h, L-alanine by RP-HPLC
Procedure: (§6) A nucleotide sequence encoding an N-terminal His-tag was added to the genes from Chromobacterium violaceum and Rhodobacter sphaeroides encoding the ω-transaminases of SEQ ID NOs: 8 and 10 respectively (see FIG. 10) such that N-terminal HIS tagged ω-transaminases could be produced. Each of the resulting modified genes was cloned into a pET21a expression vector under control of the T7 promoter and each expression vector was transformed into a BL21[DE3] E. coli host. The resulting recombinant E. coli strains were cultivated at 37° C. in a 250 mL shake flask culture containing 50 mL LB media and antibiotic selection pressure, with shaking at 230 rpm. Each culture was induced overnight at 16° C. using 1 mM IPTG.
as §2
as §3, with “5-aminopentanoate” for “5-aminopentanol”, “glutarate semialdehyde)” for “5-oxopentanol)”, “5-aminopentanoate,” for “5-aminopentanol,”, “pyruvate” for “pyruvate,”, “and” for “and then”, “L-alanine from pyruvate” for “L-alanine”
as §1, §3
as §1, with “and” for “Rhodobacter sphaeroide,”, “coli” for “coli and Vibrio fluvialis”, “8-10 and 12,” for “8-13,”
Enzyme activity assays in the reverse direction (i.e., cadaverine to 5-aminopentanal) were performed in a buffer composed of a final concentration of 50 mM HEPES buffer (pH=7.5), 10 mM cadaverine, 10 mM pyruvate, and 100 μM pyridoxyl 5′ phosphate. […]

[6] = test system: Pseudomonas aeruginosa ω-transaminase (SEQ ID NO: 9); assay: as above; format: biochemical; settings: reverse direction, 10 mM substrate, 10 mM pyruvate, 100 μM pyridoxyl 5′ phosphate, pH 7.5, 25° C., 4 h, L-alanine by RP-HPLC
Procedure: as §1, §2, §3
as §1, with “and” for “Rhodobacter sphaeroide,”, “coli” for “coli and Vibrio fluvialis”, “8-10 and 12,” for “8-13,”
as §3, with “cadaverine” for “5-aminopentanol”, “5-aminopentanal)” for “5-oxopentanol)”, “cadaverine,” for “5-aminopentanol,”
as §4, with “8-13” for “8, 10-13”, “1-aminopentane” for “N5-acetyl-1,5-diaminopentane”, “pentanal” for “N5-acetyl-5-aminopentanal”, “1-aminopentane,” for “N5-acetyl-1,5-diaminopentane,”
as §5, with “1-aminoheptane” for “1-aminopentane”, “heptanal” for “pentanal”, “1-aminoheptane,” for “1-aminopentane,”

[7] = test system: Chromobacterium violaceum ω-transaminase (SEQ ID NO: 8); assay: as above; format: biochemical; settings: forward (amine-forming) direction, inferred from the reverse assay
[8] = test system: Segniliparus rotundus carboxylate reductase (SEQ ID NO: 7), enhanced by the gene product of sfp; assay: carboxylate reductase enzyme activity assay, NADPH consumption at 340 nm; format: biochemical; settings: SEQ ID NO 7 with sfp; 2 mM substrate, 10 mM MgCl2, 1 mM ATP, 1 mM NADPH, pH 7.5, room temperature, 20 min; absorbance at 340 nm
Procedure: (§7) A nucleotide sequence encoding a His-tag was added to the genes from Mycobacterium marinum, Mycobacterium smegmatis, Segniliparus rugosus, Mycobacterium massiliense, and Segniliparus rotundus that encode the carboxylate reductases of SEQ ID NOs: 2-4, 6 and 7, respectively (GenBank Accession Nos. ACC40567.1, ABK71854.1, EFV11917.1, EIV11143.1, and ADG98140.1, respectively) (see FIG. 10) such that N-terminal HIS tagged carboxylate reductases could be produced. Each of the modified genes was cloned into a pET Duet expression vector alongside a sfp gene encoding a His-tagged phosphopantetheine transferase from Bacillus subtilis, both under control of the T7 promoter. Each expression vector was transformed into a BL21[DE3] E. coli host along with the expression vectors from Example 3. Each resulting recombinant E. coli strain was cultivated at 37° C. in a 250 mL shake flask culture containing 50 mL LB media and antibiotic selection pressure, with shaking at 230 rpm. Each culture was induced overnight at 37° C. using an auto-induction media.
The pellet from each induced shake flask culture was harvested via centrifugation. Each pellet was resuspended and lysed via sonication. The cell debris was separated from the supernatant via centrifugation. […]
Enzyme activity (i.e., 5-hydroxypentanoate to 5-hydroxypentanal) assays were performed in triplicate in a buffer composed of a final concentration of 50 mM HEPES buffer (pH=7.5), 2 mM 5-hydroxypentanal, 10 mM MgCl2, 1 mM ATP, and 1 mM NADPH. […] The consumption of NADPH was monitored by absorbance at 340 nm.
The N-terminal His-tagged carboxylate reductase of SEQ ID NO 7 (see Example 2 and FIG. 10) was assayed using glutarate semialdehyde as substrate. […] The consumption of NADPH was monitored by absorbance at 340 nm.
The N-terminal His-tagged carboxylate reductase of SEQ ID NO 2-4 and 7 (see Example 2 and FIG. 10) was assayed using glutarate methyl ester as substrate. […] The consumption of NADPH was monitored by absorbance at 340 nm.

[9] = test system: transaminase of SEQ ID NO 10; assay: ω-transaminase enzyme activity assay in the forward direction, glutarate semialdehyde plus L-alanine to pyruvate; format: biochemical, Pseudomonas syringae; settings: 10 mM glutarate semialdehyde, 10 mM L-alanine, 100 μM pyridoxyl 5′ phosphate, pH 7.5, 25° C., 4 h, pyruvate by RP-HPLC
Procedure: as §6, §2
Enzyme activity in the forward direction (i.e., glutarate semialdehyde to 5-aminopentanoate) was confirmed for the transaminase of SEQ ID NO 10. Enzyme activity assays were performed in a buffer composed of a final concentration of 50 mM HEPES buffer (pH=7.5), 10 mM glutarate semialdehyde, 10 mM L-alanine and 100 μM pyridoxyl 5′ phosphate. […] The formation of pyruvate was quantified via RP-HPLC.

[10] = test system: 4-aminobubyrate:2-oxoglutarate transaminase from Streptomyces griseus; settings: Yonaha et al., 1985; cited from earlier work
[11] = test system: ω-transaminase from Chromobacterium violaceum (SEQ ID NO: 8); settings: Kaulmann et al., 2007; cited from earlier work
[12] = test system: 5-aminovalerate transaminase from Clostridium viride; settings: Barker et al., 1987; cited from earlier work
[13] = test system: Segniliparus rugosus carboxylate reductase (SEQ ID NO: 4), enhanced by the gene product of sfp; assay: carboxylate reductase enzyme activity assay, NADPH consumption at 340 nm; format: biochemical; settings: SEQ ID NO 4 with sfp; 2 mM substrate, 10 mM MgCl2, 1 mM ATP, 1 mM NADPH, pH 7.5, room temperature, 20 min; absorbance at 340 nm
Procedure: as §7
(§8) The pellet from each induced shake flask culture was harvested via centrifugation. Each pellet was resuspended and lysed via sonication. The cell debris was separated from the supernatant via centrifugation. The carboxylate reductases and phosphopantetheine transferase were purified from the supernatant using Ni-affinity chromatography, diluted 10-fold into 50 mM HEPES buffer (pH=7.5) and concentrated via ultrafiltration.
(§9) Enzyme activity (i.e., 5-hydroxypentanoate to 5-hydroxypentanal) assays were performed in triplicate in a buffer composed of a final concentration of 50 mM HEPES buffer (pH=7.5), 2 mM 5-hydroxypentanal, 10 mM MgCl2, 1 mM ATP, and 1 mM NADPH. Each enzyme activity assay reaction was initiated by adding purified carboxylate reductase and phosphopantetheine transferase or the empty vector control to the assay buffer containing the 5-hydroxypentanoate and then incubated at room temperature for 20 min. The consumption of NADPH was monitored by absorbance at 340 nm.
(§10) The N-terminal His-tagged carboxylate reductase of SEQ ID NO 2-4 and 7 (see Example 2 and FIG. 10) was assayed using glutarate methyl ester as substrate. The enzyme activity assay was performed in triplicate in a buffer composed of a final concentration of 50 mM HEPES buffer (pH=7.5), 2 mM glutarate methyl ester, 10 mM MgCl2, 1 mM ATP and 1 mM NADPH. The enzyme activity assay reaction was initiated by adding purified carboxylate reductase and phosphopantetheine transferase or the empty vector control to the assay buffer containing the glutarate semialdehyde and then incubated at room temperature for 20 min. The consumption of NADPH was monitored by absorbance at 340 nm.

[14] = test system: Mycobacterium smegmatis carboxylate reductase (SEQ ID NO: 3), enhanced by the gene product of sfp; assay: as above; format: biochemical; settings: SEQ ID NO 3 with sfp; 2 mM substrate, 10 mM MgCl2, 1 mM ATP, 1 mM NADPH, pH 7.5, room temperature, 20 min; absorbance at 340 nm
Procedure: as §7, §8, §9, §10

[15] = molecular target: T2, Mycobacterium marinum carboxylate reductase (SEQ ID NO: 2), enhanced by the gene product of sfp (Mycobacterium marinum, UniProt B2HN69); assay: as above; format: biochemical; settings: SEQ ID NO 2 with sfp; 2 mM substrate, 10 mM MgCl2, 1 mM ATP, 1 mM NADPH, pH 7.5, room temperature, 20 min; absorbance at 340 nm
T2 construct: His-tag (N); made in house; host or cells: E. coli BL21[DE3], pET Duet
T2 sequence (B2HN69 whole entry): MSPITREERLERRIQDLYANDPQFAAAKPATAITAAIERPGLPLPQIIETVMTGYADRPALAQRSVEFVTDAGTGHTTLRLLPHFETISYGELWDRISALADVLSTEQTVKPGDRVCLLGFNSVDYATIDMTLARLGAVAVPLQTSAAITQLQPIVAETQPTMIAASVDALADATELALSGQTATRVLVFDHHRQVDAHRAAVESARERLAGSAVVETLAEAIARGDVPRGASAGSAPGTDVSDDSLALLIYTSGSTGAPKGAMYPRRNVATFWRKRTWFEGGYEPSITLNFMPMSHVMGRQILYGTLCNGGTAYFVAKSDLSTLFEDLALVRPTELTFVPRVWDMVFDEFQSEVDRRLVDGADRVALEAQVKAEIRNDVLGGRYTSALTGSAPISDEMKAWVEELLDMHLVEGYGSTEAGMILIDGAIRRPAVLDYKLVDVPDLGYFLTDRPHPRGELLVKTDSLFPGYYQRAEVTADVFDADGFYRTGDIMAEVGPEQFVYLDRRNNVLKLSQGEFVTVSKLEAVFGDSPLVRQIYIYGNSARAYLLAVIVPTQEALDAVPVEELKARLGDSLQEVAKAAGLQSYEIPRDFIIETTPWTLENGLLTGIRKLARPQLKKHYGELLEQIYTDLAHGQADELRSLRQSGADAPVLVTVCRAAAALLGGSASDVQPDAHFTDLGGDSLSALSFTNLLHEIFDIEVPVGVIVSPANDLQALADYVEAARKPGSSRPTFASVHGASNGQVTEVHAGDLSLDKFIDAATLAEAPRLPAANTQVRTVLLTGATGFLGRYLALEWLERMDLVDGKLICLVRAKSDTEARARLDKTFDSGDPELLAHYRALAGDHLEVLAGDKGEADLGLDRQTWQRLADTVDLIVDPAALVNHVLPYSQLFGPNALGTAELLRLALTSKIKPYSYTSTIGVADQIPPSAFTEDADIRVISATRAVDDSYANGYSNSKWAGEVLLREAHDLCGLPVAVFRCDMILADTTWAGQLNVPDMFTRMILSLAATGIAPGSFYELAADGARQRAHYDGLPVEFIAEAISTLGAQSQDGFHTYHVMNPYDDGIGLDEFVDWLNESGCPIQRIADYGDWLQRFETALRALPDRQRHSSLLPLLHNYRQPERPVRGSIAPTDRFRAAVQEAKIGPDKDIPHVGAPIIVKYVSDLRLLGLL
Procedure: as §7, §8, §9, §10

SMILES: NCCCCCN [cadaverine]
- accepted as substrate as confirmed against the empty vector control [1]: accepted
- accepted as substrate as confirmed against the empty vector control [2]: accepted
- activity for the substrate [3]: demonstrated activity
- accepted as diamine substrate [4]: accepts
- accepted as substrate as confirmed against the empty vector control [5]: accepted
- accepted as substrate as confirmed against the empty vector control [6]: accepted

SMILES: O=CCCCC(=O)O [glutarate semialdehyde]
- accepted as substrate, concluded from the reversibility of the ω-transaminase activity [7]: accepted
- accepted as substrate as confirmed against the empty vector control [8]: accepted
- accepted as substrate as confirmed against the empty vector control [9]: accepted

SMILES: NCCCCCC(=O)O [6-aminohexanoate]
- activity for the conversion to adipate semialdehyde [10]: demonstrated analogous activity
- accepted as amino donor [11]: demonstrated analogous activity
- activity for the conversion to adipate semialdehyde [12]: demonstrated analogous activity

SMILES: COC(=O)CCCC(=O)O [glutarate methyl ester]
- accepted as substrate as confirmed against the empty vector control [8]: accepted
- accepted as substrate as confirmed against the empty vector control [13]: accepted
- accepted as substrate as confirmed against the empty vector control [14]: accepted
- accepted as substrate as confirmed against the empty vector control [15]: accepted
